Patent US8399683B2 (TetraLogic Pharmaceuticals, priority 2008, dated 2013)

Tests used:
SK-OV-3 cells = experiment: Growth inhibition of ovarian cancer cell line SK-OV-3 (MTT assay, cell survival); type: cell-based; conditions: Homo sapiens, drug concentration that results in 50% cell survival, 72 hrs incubation, reported as ranges
Procedure: Compounds of the invention also were tested for their ability to inhibit the growth of an ovarian cancer cell line, SK-OV-3. A known assay previously used for measuring cell growth (as described in Hansen, M. B., Nielsen, S. E., and Berg, K. (1989) J. Immunol. Methods 119, 203-210 and incorporated herein by reference in its entirety) was used. Briefly, SK-OV-3 cells are seeded in 96-well plates in McCoy's medium containing 10% fetal bovine serum albumin (5,000 per well) and incubated overnight at 37° C. The next day, test compounds are added at various concentrations (0.003-10 μM) and the plates are incubated at 37° C. for an additional 72 hrs. This incubation time was considered to be optimal for measuring inhibitory effects of the different compounds tested. 50 microliters of 5 mg/mL MTT reagent is added to each well and the plates are incubated at 37° C. for another three (3) hours. At the end of the three (3) hour incubation period, 50 microliters of DMSO is added to each well to dissolve cells and the optical density (OD) of the wells is measured with a microplate reader (Victor^2 1420, Wallac, Finland) at 535 nm. Cell survival (CS) was calculated using the following equation: CS=(OD treated well/mean OD control wells)×100%.
The CC50 (reported in the following tables), is defined as the drug concentration that results in 50% cell survival (CS), and is derived by calculating the point where the dose-response curve crosses the 50% CS point using GraphPad Prism. The reported CC50 values are supplied as ranges (A=<0.1 μM, B=0.1 μM to 1 μM, C=>1 μM to 10 μM, D=>10 μM).

XIAP BIR-3 = molecular target: T1, XIAP BIR-3 (Homo sapiens, UniProt P98170); experiment: Fluorescence polarization binding affinity to XIAP BIR-3 (competition with AbuRPF-K(5-Fam)-NH2); conditions: 5 nM labeled peptide, 40 nM BIR3, 15 min at RT, pH 7.5; reported as ranges
T1 construct: 40 nM of the respective IAP BIR3
T1 sequence (P98170 241-356 limits assumed): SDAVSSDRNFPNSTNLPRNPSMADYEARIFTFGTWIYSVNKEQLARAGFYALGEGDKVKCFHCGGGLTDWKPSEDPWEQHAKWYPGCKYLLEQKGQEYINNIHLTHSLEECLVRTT
Procedure: (§1) The binding affinities of the compounds are reported as a KD value (μM). Briefly, various concentrations of test peptides were mixed with 5 nM of the fluorescently labeled peptide (i.e., a mutated N-terminal Smac peptide—AbuRPF-K(5-Fam)-NH2) and 40 nM of the respective IAP BIR3 for 15 min at RT in […] of 0.1M Potassium Phosphate buffer, pH 7.5 containing […] bovine g-globulin. Following incubation, the polarization values (mP) were measured on a Victor2V (available from PerkinElmer Life Sciences) using a 485 nm excitation filter and a 520 nm emission filter. The reported KD values are supplied as ranges (A=<0.1 μM, B=0.1 μM to 1 μM, C>1 μM to 10 μM, D=>10 μM).

cIAP-1 BIR-3 = cIAP-1 BIR-3 (Homo sapiens, UniProt Q13490); experiment: Fluorescence polarization binding affinity to cIAP-1 BIR-3 (competition with AbuRPF-K(5-Fam)-NH2); conditions: 5 nM labeled peptide, 40 nM BIR3, 15 min at RT, pH 7.5; reported as ranges; read-out: KD (c-IAP-1 BIR3)
Sequence of cIAP-1 BIR-3 (Q13490 266-352 limits assumed): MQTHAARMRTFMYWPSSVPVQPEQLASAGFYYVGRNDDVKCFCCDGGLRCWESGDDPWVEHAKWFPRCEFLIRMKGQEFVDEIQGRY
Procedure: as §1

Compound | CC50 (SK-OV-3 cells) [nM] | Kd (XIAP BIR-3) [nM] | Kd (cIAP-1 BIR-3) [nM]
CN[C@@H](C)C(=O)N[C@H](C(=O)N1CC[C@@H]2[C@H]1[C@@H](c1c[nH]c3cc(F)ccc13)CN2C1CCCCC1)C1CCCCC1 [Example 20, N-{1-Cyclohexyl-2-[4-cyclohexyl-6-(6-fluoro-1H-indol-3-yl)-hexahydro-pyrrolo[3,2-b]pyrrol-1-yl]-2-oxo-ethyl}-2-methylamino-propionamide] | 100 to 1000 | < 100 | < 100
CN[C@@H](C)C(=O)N[C@H](C(=O)N1CC[C@@H]2[C@H]1[C@@H](c1c[nH]c3cc(F)ccc13)CN2C1CCNCC1)C1CCCCC1 [Example 21, N-{1-Cyclohexyl-2-[6-(6-fluoro-1H-indol-3-yl)-4-piperidin-4-yl-hexahydro-pyrrolo[3,2-b]pyrrol-1-yl]-2-oxo-ethyl}-2-methylamino-propionamide] | > 10000 | 100 to 1000 | < 100
CN[C@@H](C)C(=O)N[C@H](C(=O)N1CC[C@@H]2[C@H]1[C@@H](c1c[nH]c3cc(F)ccc13)CN2C1CCN(C)CC1)C1CCCCC1 [Example 22, N-{1-Cyclohexyl-2-[6-(6-fluoro-1H-indol-3-yl)-4-(1-methyl-piperidin-4-yl)-hexahydro-pyrrolo[3,2-b]pyrrol-1-yl]-2-oxo-ethyl}-2-methylamino-propionamide] | 100 to 1000 | 100 to 1000 | < 100
CN[C@@H](C)C(=O)N[C@H](C(=O)N1CC[C@@H]2[C@H]1[C@@H](c1c[nH]c3cc(F)ccc13)CN2Cc1ncc(C)s1)C1CCCCC1 [Example 23, N-{1-Cyclohexyl-2-[6-(6-fluoro-1H-indol-3-yl)-4-(5-methyl-thiazol-2-ylmethyl)-hexahydro-pyrrolo[3,2-b]pyrrol-1-yl]-2-oxo-ethyl}-2-methylamino-propionamide] | < 100 | < 100 | < 100
CN[C@@H](C)C(=O)N[C@H](C(=O)N1CC[C@@H]2[C@H]1[C@@H](c1c[nH]c3cc(F)ccc13)CN2Cc1ccccn1)C1CCCCC1 [Example 24, N-{1-Cyclohexyl-2-[6-(6-fluoro-1H-indol-3-yl)-4-pyridin-2-ylmethyl-hexahydro-pyrrolo[3,2-b]pyrrol-1-yl]-2-oxo-ethyl}-2-methylamino-propionamide] | < 100 | < 100 | < 100
CN[C@@H](C)C(=O)N[C@H](C(=O)N1CC[C@@H]2[C@H]1[C@@H](c1c[nH]c3cc(F)ccc13)CN2Cc1cccnc1)C1CCCCC1 [Example 25, N-{1-Cyclohexyl-2-[6-(6-fluoro-1H-indol-3-yl)-4-pyridin-3-ylmethyl-hexahydro-pyrrolo[3,2-b]pyrrol-1-yl]-2-oxo-ethyl}-2-methylamino-propionamide] | 100 to 1000 | < 100 | < 100
CN[C@@H](C)C(=O)N[C@H](C(=O)N1CC[C@@H]2[C@H]1[C@@H](c1c[nH]c3cc(F)ccc13)CN2Cc1ccncc1)C1CCCCC1 [Example 26, N-{1-Cyclohexyl-2-[6-(6-fluoro-1H-indol-3-yl)-4-pyridin-4-ylmethyl-hexahydro-pyrrolo[3,2-b]pyrrol-1-yl]-2-oxo-ethyl}-2-methylamino-propionamide] | < 100 | < 100 | < 100
CN[C@@H](C)C(=O)N[C@H](C(=O)N1CC[C@@H]2[C@H]1[C@@H](c1c[nH]c3cc(F)ccc13)CN2Cc1nccn1C)C1CCCCC1 [Example 27, N-{1-Cyclohexyl-2-[6-(6-fluoro-1H-indol-3-yl)-4-(1-methyl-1H-imidazol-2-ylmethyl)-hexahydro-pyrrolo[3,2-b]pyrrol-1-yl]-2-oxo-ethyl}-2-methylamino-propionamide] | 1000 to 10000 | < 100 | < 100
CN[C@@H](C)C(=O)N[C@H](C(=O)N1CC[C@H]2NC[C@H](c3c[nH]c4cc(F)ccc34)[C@H]21)[C@@H](C)O [Example 28, N-{1-[6-(6-Fluoro-1H-indol-3-yl)-hexahydro-pyrrolo[3,2-b]pyrrole-1-carbonyl]-2-hydroxy-propyl}-2-methylamino-propionamide] | 1000 to 10000 | 100 to 1000 | < 100
CC[C@H](NC(=O)[C@H](C)NC)C(=O)N1CC[C@H]2NC[C@H](c3c[nH]c4cc(F)ccc34)[C@H]21 [Example 29, N-{1-[6-(6-Fluoro-1H-indol-3-yl)-hexahydro-pyrrolo[3,2-b]pyrrole-1-carbonyl]-propyl}-2-methylamino-propionamide] | 100 to 1000 | < 100 | < 100
CN[C@@H](C)C(=O)N[C@H](C(=O)N1CC[C@H]2NC[C@H](c3c[nH]c4cc(F)ccc34)[C@H]21)C(C)C [Example 30, N-{1-[6-(6-Fluoro-1H-indol-3-yl)-hexahydro-pyrrolo[3,2-b]pyrrole-1-carbonyl]-2-methyl-propyl}-2-methylamino-propionamide] | < 100 | < 100 | < 100
CN[C@@H](C)C(=O)N[C@H](C(=O)N1CC[C@H]2NC[C@H](c3c[nH]c4cc(F)ccc34)[C@H]21)C(C)(C)C [Example 31, N-{1-[6-(6-Fluoro-1H-indol-3-yl)-hexahydro-pyrrolo[3,2-b]pyrrole-1-carbonyl]-2,2-dimethyl-propyl}-2-methylamino-propionamide] | < 100 | 100 to 1000 | < 100
CN[C@@H](C)C(=O)N[C@H](C(=O)N1CC[C@H]2NC[C@H](c3c[nH]c4cc(F)ccc34)[C@H]21)C1CCCCC1 [Example 32, N-{1-Cyclohexyl-2-[6-(6-fluoro-1H-indol-3-yl)-hexahydro-pyrrolo[3,2-b]pyrrol-1-yl]-2-oxo-ethyl}-2-methylamino-propionamide] | < 100 | < 100 | < 100
CN[C@@H](C)C(=O)N[C@@H](CO)C(=O)N1CC[C@H]2NC[C@H](c3c[nH]c4cc(F)ccc34)[C@H]21 [Example 33, N-{2-[6-(6-Fluoro-1H-indol-3-yl)-hexahydro-pyrrolo[3,2-b]pyrrol-1-yl]-1-hydroxymethyl-2-oxo-ethyl}-2-methylamino-propionamide] | 1000 to 10000 | < 100 | < 100
CN[C@@H](C)C(=O)N[C@@H](COC)C(=O)N1CC[C@H]2NC[C@H](c3c[nH]c4cc(F)ccc34)[C@H]21 [Example 34, N-{2-[6-(6-Fluoro-1H-indol-3-yl)-hexahydro-pyrrolo[3,2-b]pyrrol-1-yl]-1-methoxymethyl-2-oxo-ethyl}-2-methylamino-propionamide] | 1000 to 10000 | < 100 | < 100
CN[C@@H](C)C(=O)N[C@H](C(=O)N1CC[C@H]2NC[C@H](c3c[nH]c4cc(F)ccc34)[C@H]21)[C@@H](C)OC [Example 35, N-{1-[6-(6-Fluoro-1H-indol-3-yl)-hexahydro-pyrrolo[3,2-b]pyrrole-1-carbonyl]-2-methoxy-propyl}-2-methylamino-propionamide] | < 100 | < 100 | < 100
CN[C@@H](C)C(=O)N[C@H](C(=O)N1CC[C@@H]2[C@H]1[C@@H](c1c[nH]c3cc(F)ccc13)CN2C(=O)OC)C1CCCCC1 [Example 36, 4-[2-Cyclohexyl-2-(2-methylamino-propionylamino)-acetyl]-3-(6-fluoro-1H-indol-3-yl)-hexahydro-pyrrolo[3,2-b]pyrrole-1-carboxylic acid methyl ester] | < 100 | < 100 | < 100
CN[C@@H](C)C(=O)N[C@H](C(=O)N1CC[C@@H]2[C@H]1[C@@H](c1c[nH]c3cc(F)ccc13)CN2C(=O)C(F)(F)F)C1CCCCC1 [Example 37, N-{1-Cyclohexyl-2-[6-(6-fluoro-1H-indol-3-yl)-4-(2,2,2-trifluoro-acetyl)-hexahydro-pyrrolo[3,2-b]pyrrol-1-yl]-2-oxo-ethyl}-2-methylamino-propionamide] | < 100 | < 100 | < 100
